Laboratory results taken from US12509468B2, “Quindoline compounds and uses thereof” (Arizona Board of Regents on Behalf of the University of …, priority 2019, dated 2025).

Columns and labels:
[1] = system: DNA oligomer containing the G-quadruplex forming region of the c-Myc promoter; assay: FRET assay with c-Myc G-quadruplex oligomer (ED35); format: binding; settings: concentration of ligand that decreases relative fluorescence of DNA FRET probe (1 μM) by 35%
Description: All synthesized ligands are examined with a DNA oligomer containing the G-quadruplex forming region of the c-Myc promoter (d[[…]]). The oligomer is tagged with a 5′-FAM fluorophore and a 3′-Black Hole Quencher molecule. 1 μM oligomer is linearized by heating at 95° C. for 5 minutes in a 50 mM Tris-Acetate buffer (pH 7.1) and slowly cooled back to room temperature, allowing formation of a G-quadruplex. Ligand is added to the oligomer probe at various concentrations spanning a 2-3 log range (high dose of 10 μM), allowed to incubate for 15 minutes in the dark and fluorescence is read on the BioTek Synergy HT spectrophotometer (Biotek, Winooski, VT). Drug autofluorescence is subtracted, data is normalized to oligomer only, and ED35s are calculated from data fit by a sigmoidal top-to-bottom nonlinear regression. ED35s<10 μM are further analyzed by circular dichroism (CD).
Experimental values for compounds tested according to one or more of the preceding examples are reported in the following table, including, ED35 is the concentration of ligand that decreases the relative fluorescence of a DNA FRET probe (1 μM) by 35% (identified as the threshold to minimize false negatives). ED35 values are reported in ranges: A: >10 μM; B: ≤10 μM.

[2] = system: c-Myc oligomer (parallel G-quadruplex); assay: Circular dichroism melting (ΔTm) with 1 equivalent of ligand; format: binding; settings: increase in melting temperature with 1 equivalent of ligand (DNA:Ligand=1:1)
Description: Non-labeled oligomers were prepared as described for FRET (Example VII). Ligands interacting with the c-Myc FRET oligomer are further examined for DNA secondary structure stabilization by CD (Sun et al., 2005). Briefly, the CD absorption spectra at 262 nm (parallel G-quadruplex) with increasing temperatures (4-95° C.) is examined in the absence and presence of 1 equivalence of ligand. TM is calculated by GraphPad Prizm using a top-to-bottom nonlinear fit, and ΔTM are calculated for each ligands.

[3] = system: Bcl-2 G-quadruplex; assay: Competition dialysis, ligand bound to G-quadruplex; format: binding; settings: 2 μM of compound
Description: (§1) Following the competition dialysis assay method of the Chaires group (Ragazzon et al., Methods 2007, 42, 173-182, which is hereby incorporated by reference in its entirety) using 2 μM of the referenced compound, the concentration of ligand bound to G-quadruplex structure for a variety of target genes were determined.

[4] = system: HIF-1α G-quadruplex; assay: Competition dialysis, ligand bound to G-quadruplex; format: binding; settings: 2 μM of compound
Description: as §1

[5] = system: MYC G-quadruplex; assay: Competition dialysis, ligand bound to G-quadruplex; format: binding; settings: 2 μM of compound
Description: as §1

[6] = system: PDGF-Rβ G-quadruplex; assay: Competition dialysis, ligand bound to G-quadruplex; format: binding; settings: 2 μM of compound
Description: as §1

[7] = system: PDGFA G-quadruplex; assay: Competition dialysis, ligand bound to G-quadruplex; format: binding; settings: 2 μM of compound
Description: as §1

[8] = system: Telomeric G-quadruplex; assay: Competition dialysis, ligand bound to G-quadruplex; format: binding; settings: 2 μM of compound
Description: as §1

[9] = system: VEGF G-quadruplex; assay: Competition dialysis, ligand bound to G-quadruplex; format: binding; settings: 2 μM of compound
Description: as §1

[10] = system: hTERT G-quadruplex; assay: Competition dialysis, ligand bound to G-quadruplex; format: binding; settings: 2 μM of compound
Description: as §1

[11] = system: AR; assay: AR protein expression by immunoblotting in prostate cancer cells; format: cell-based; settings: for concentration of maximal inhibitory activity on AR expression: 24 h of treatment
Description: (§2) This example provides specific compounds of the present invention suppress AR protein expression in androgen-dependent (LNCaP) and CRPC tumor cells ([…]) after a 24 h treatment at 10 μM (FIG. 1A) (Cell lysates from LNCaP and C4-2 cells treated with GSA compounds at a concentration of 10 μM for 24 hours were analyzed for expression of AR, NCL, and GAPDH by immunoblotting). GSA0932 suppress AR expression in 22RV1 and VCaP tumor cells, after 24 h of treatment reaching its maximal inhibitory activity at a concentration of 3 and 5 μM respectively (FIG. 1B) (Cell lysates from indicated prostate cancer cell lines treated with increasing concentrations GSA0932 for 24 hours were analyzed for AR, NCL, and GAPDH by immunoblotting). […] Values are means±s.e.m; p<0.05 (*); n=3).

[12] = system: AR mRNA; assay: AR mRNA expression by RT-qPCR; format: cell-based; settings: 10 μM; for AR mRNA: LNCaP and C4-2 cells, 12 and 24 hours
Description: as §2
(§3) To measure the dependency of GSA0932-mediated AR suppression on the AR G4-element, we generated a stable LNCaP cell lines expressing a dual reporter in which Gaussia luciferase is driven by either a wild type or a mutant AR promoter lacking the G4 element, and secreted alkaline phosphatase (SEAP) is driven by a constitutive promoter. […] However, GSA0932 had no effect on the G4-deleted AR reporter (FIG. 1E). […] Knocking down NCL expression alleviated the GSA0932 inhibitory activity against AR mRNA expression compared with control cells (FIG. 1G) (LNCaP cells were transfected with scrambled (Scr) or NCL siRNAs and […] post-transfection, cells were treated with DMSO, 10 μM GSA0932, or […] GSA1502 for 12 hours. Extracted RNA was analyzed for AR expression by RT-qPCR).

[13] = system: 22Rv1 cells; assay: Cell viability by MTT, 48 h; format: cell-based; settings: Homo sapiens, 22Rv1, 48 h
From the text: (§4) Table V provides the IC50 values for GSA0932.

[14] = system: C4-2 cells; assay: Cell viability by MTT, 48 h; format: cell-based; settings: C4-2, 48 h
From the text: as §4

[15] = system: LNCaP cells; assay: Cell viability by MTT, 48 h; format: cell-based; settings: Homo sapiens
From the text: as §4

[16] = system: PC3 cells; assay: Cell viability by MTT, 48 h; format: cell-based; settings: Homo sapiens, PC-3, PC3, 48 h
From the text: as §4

[17] = system: RWPE non-malignant prostate cells; assay: Cell viability by MTT, 48 h; format: cell-based
From the text: as §4

[18] = system: VCaP cells; assay: Cell viability by MTT, 48 h; format: cell-based; settings: Homo sapiens
From the text: as §4

[19] = system: ARv7 splice variant; assay: ARv7 splice variant expression by immunoblotting in 22RV1; format: cell-based; settings: 22RV1 cells, 24 h
Description: as §2

[20] = system: KLK3, also known as PSA; assay: mRNA expression of AR target gene by RT-qPCR; format: cell-based; settings: 12 hours; 10 μM (LNCaP, C4-2), 5 μM (VCaP), 3 μM (22RV1)
[21] = system: wild type AR promoter (AR G4) reporter; assay: Dual reporter, Gaussia luciferase driven by wild type AR promoter, in LNCaP; format: cell-based; settings: LNCaP stable cells, 10 μM, 12 hours
From the text: as §3

[22] = system: G4-deleted AR reporter; assay: Dual reporter, Gaussia luciferase driven by mutant AR promoter lacking the G4 element, in LNCaP; format: cell-based; settings: LNCaP stable cells, 10 μM, 12 hours
From the text: as §3

[23] = system: NCL bound to the G4-element of the AR promoter; assay: ChIP of NCL on AR G4; format: cell-based; settings: LNCaP and C4-2 cells, 10 μM
[24] = system: AR-positive tumor cells versus non-AR expressing cells; assay: Cytotoxic activity across prostate cell lines by MTT; format: cell-based; settings: 48 h
From the text: as §4

## Cl.c1ccc2c3c4c(nc2c1)c1ccccc1n4CCCN3CCCN1CCCCCC1 [Compound 6]
[1]
  ED35: A (A: >10 μM)
[2]
  ΔTm: A (A: 0-10° C.)

## OC1CCN(CCN2CCCn3c4ccccc4c4nc5ccccc5c2c43)CC1 [Compound 2]
[1]
  ED35: A (A: >10 μM)
[2]
  ΔTm: A (A: 0-10° C.)

## CN1CCN(C(=O)NCCCN2CCCn3c4ccccc4c4nc5ccccc5c2c43)CC1 [Compound 10]
[1]
  ED35: B (B: ≤10 μM)
[2]
  ΔTm: A (A: 0-10° C.)
[3]
  concentration of ligand bound to G-quadruplex structure: 8.3 µM
[4]
  concentration of ligand bound to G-quadruplex structure: 3.3 µM
[5]
  concentration of ligand bound to G-quadruplex structure: 6.8 µM
[6]
  concentration of ligand bound to G-quadruplex structure: 8.3 µM
[7]
  concentration of ligand bound to G-quadruplex structure: 1.8 µM
[8]
  concentration of ligand bound to G-quadruplex structure: 2.9 µM
[9]
  concentration of ligand bound to G-quadruplex structure: 2.5 µM
[10]
  concentration of ligand bound to G-quadruplex structure: 9.5 µM

## O=C(NCCCN1CCCn2c3ccccc3c3nc4ccccc4c1c32)C1C[C@@H](O)CN1 (stereo partly shown) [Compound 11]
[1]
  ED35: B (B: ≤10 μM)
[2]
  ΔTm: B (B: >10° C.)

## OCCCN1CCCn2c3ccccc3c3nc4ccccc4c1c32 [Compound 4]
[1]
  ED35: B (B: ≤10 μM)
[2]
  ΔTm: A (A: 0-10° C.)

## NCCCN1CCCn2c3ccccc3c3nc4ccccc4c1c32 [Compound 14]
[1]
  ED35: B (B: ≤10 μM)
[2]
  ΔTm: A (A: 0-10° C.)

## CN(C)CCN1CCCn2c3ccccc3c3nc4ccccc4c1c32 [GSA1502]
[11]; LNCaP and C4-2 cells, 24 h, 10 μM
  AR protein expression: does not affect
[12]
  AR mRNA: does not affect

## O=C(NCCN1CCCn2c3ccccc3c3nc4ccccc4c1c32)C1C[C@@H](O)CN1 (stereo partly shown) [Compound 9]
[1]
  ED35: B (B: ≤10 μM)
[2]
  ΔTm: B (B: >10° C.)

## OC1CCN(CCN2CCCn3c4ccccc4c4nc5ccccc5c2c43)CC1 [GSA0932]
[13]
  IC50: 0.9 ± 0.11 µM
[14]
  IC50: 2 ± 0.04 µM
[15]
  IC50: 1.4 ± 0.26 µM
[16]
  IC50: 4.3 ± 0.16 µM
[17]
  IC50: 5.4 ± 0.05 µM
[18]
  IC50: 2.8 ± 0.03 µM
[11]; 22RV1 cells
  concentration of maximal inhibitory activity on AR expression: 3 µM
[11]; VCaP cells
  concentration of maximal inhibitory activity on AR expression: 5 µM
[19]
  expression of ARv7 splice variant: inhibits the expression
[20]
  mRNA expression of AR target gene KLK3 (PSA): suppressed mRNA expression
[12]
  AR mRNA: significantly decreased
[12]; LNCaP cells, NCL siRNA versus scrambled, 12 hours
  inhibitory activity against AR mRNA expression after NCL knockdown: alleviated
[21]
  luciferase activity of wild type reporter: significantly decreases luciferase activity
[22]
  effect on G4-deleted AR reporter: had no effect
[23]
  amount of NCL bound to the G4-element of the AR promoter: increases the amount of NCL bound
[24]
  cytotoxic activity, AR-positive versus non-AR expressing cells: stronger cytotoxic activity against AR-positive tumor cells than non-AR expressing cells
